Test results from article PMC11823679, “Protamine protects against vancomycin-induced kidney injury” (Antimicrobial Agents and Chemotherapy, 2025).

Assays:
megalin = system: megalin; design: method as in Hori et al. ([18]); settings: quartz crystal microbalance analysis, ref Hori et al. ([18]), cited from earlier work
From the text: Hori et al. ([18]) performed a study to evaluate the binding of megalin to vancomycin and cisplatin, as well as aminoglycosides and colistin. They utilized quartz crystal microbalance analysis to assess the dir ...

Urinary KIM-1 = Urinary KIM-1 kidney injury in rats given vancomycin and/or protamine; settings: for Contrast KIM-1: urinary KIM-1, vancomycin 150 mg/kg i.v., protamine sulfate 1.5 mg/kg i.v.
Experimental: Male Sprague-Dawley rats (n = 19; age 8–10 weeks; 268–304 g; Envigo, Indianapolis, IN, USA) underwent double jugular catheterization ([33]) (Fig. 3A). Surgery was performed under ketamine (100 mg/kg of body weight) and xyalzine (10 mg/kg of body weight) anesthesia with buprenorphine (0.02 mg/kg of body weight) given post-operatively for pain management. Animals were allowed to recover 4 days before the administration of any drug. Animals were housed in metabolic cages starting 1 day prior to day 0 with access to food and water ad libitum for the duration of the study (Fig. 3B).
Animals were divided into three experimental treatment protocols. Using a dedicated jugular vein for dosing, the animals received clinical grade intravenous protamine and/or vancomycin in doses allometrically scaled to humans according to the following protocols: (i) protamine sulfate (1.5 mg/kg of body weight) and vancomycin (150 mg/kg of body weight) (n = 6); (ii) protamine only (1.5 mg/kg of body weight) with saline sham (sham for volume of vancomycin) (n = 7); or (iii) vancomycin only (150 mg/kg of body weight) with saline sham (sham for volume of protamine) (n = 6) ([34][–][36]). Saline sham was given to match the volumes of protamine and vancomycin doses to maintain euvolemia. On day 0, all animals received only iohexol (51.8 mg/day) intravenously to establish baseline GFR measurements. Drugs were administered as described above by treatment protocols to all groups on days 1–4. Infusion times for each of the drugs include (i) protamine sulfate, 5 minutes; (ii) vancomycin and iohexol, 2 minutes; and (iii) saline sham, 5 or 2 minutes depending on what the sham was replacing.
Urine samples were collected daily, and volumes were measured starting from day 0 to day 4. Samples were centrifuged at 500 g for 10 minutes, and the resulting supernatant was aliquoted (1.5 mL) and stored at −80°C for renal biomarker analysis later.
Urinary samples were analyzed for KIM-1 using the Milliplex MAP Rat Kidney Toxicity Magnetic Bead Panel 1 (EMD Millipore Corporation, Charles, MO, USA) according to the manufacturer’s directions and as previously described ([34], [36], [37]). Briefly, neat urine aliquots were mixed with monoclonal antibody-coated magnetic microbeads (Bead Panel 1) and run on a 96-well plate, which also included a standard curve. Biomarker data were acquired, and concentrations were analyzed using Belysa Immunoassay Curve-Fitting Software V1 (MilliporeSigma, Darmstadt, Germany). The amount of urinary KIM-1 excreted over the 24-h collection period was obtained by multiplying the urinary concentration by 24-h urinary volume.
An omnibus test, i.e., joint tests (multi-degree of freedom) of the interaction and main effects, which is similar to the F test in ANOVA, was used initially (STATA 17.0 BE, StataCorp LLC, College Station, TX, USA). Only models with significant interaction at P < 0.05 were selected for post hoc analysis (i.e., identification of the difference between treatment groups and days). Margins were calculated for a full factorial of the variables, i.e., main effects for each variable and interactions. Referent groups were pre-treatment baseline values and protamine alone as a treatment, except where noted. […] LOWESS graphs were produced in R version 4.2.2 using ggplot2. […] All tests were two-tailed; a P < 0.05 was required for statistical significance. Graphs for cellular studies were generated using GraphPad version 9.3.1 and were fit with a log(inhibitor) vs normalized response function after log transformation.

acute kidney injury = settings: cited from earlier work
From the text: Vancomycin is one of the most widely used antibiotics within United States in-patient healthcare systems, accounting for 11.9% of all antibiotic use for inpatient antimicrobials (1,258 out of 10,612) in a 2015 hospital survey ([1]). As a tricyclic glycopeptide, it is primarily indicated for severe Gram-positive bacterial infections, including methicillin-resistant Staphylococcus aureus (MRSA) ([2]). For about 70 years now, vancomycin has remained a first-line antibiotic widely used and studied across people of all ages. Despite its efficacy in the treatment of MRSA infections, one common limit ... || In humans, VAN (creatinine defined) ([41]) occurs between an interquartile range of 6–13 days ([42]), and creatinine is known to lag behind GFR ([43]). Serum creatinine is the most commonly utilized biomarker to classify AKI in patients ([41], [44][–][46]); however, creatinine is non-sensitive, non-specific, and slowly reactive to kidney function as compared to GFR ([47]). GFR can drop 50% before changes in SCr are detected ([48][–][50]). As such, acute injuries from vancomycin take a median of 6 days to be detectable with creatinine alone ([51]). Therefore, this study focused on the pre-clini ... || Originally derived from salmon fish sperm (salmine), protamine is a highly positively charged protein consisting of 32 amino acids. Currently, it is widely used as an effective agent to neutralize heparin using electrostatic bonds made between the cationic arginine groups of protamine and the anionic heparin in a 1:1 ratio ([6]). Specifically, protamine shares binding sites with heparin (current target for FDA-approved use) and megalin ([30], [31]). On this note, a clinical limitation for the use of protamine arises for patients who require heparin infusions, such as post-diabetic foot infecti ...

[1] = within group, day 2 vs 1 (baseline)
[2] = within group, day 3 vs 1 (baseline)
[3] = within group, day 4 vs 1 (baseline)

CC1(C)C[C@@H]1C(=O)N/C(=C\CCCCSC[C@H](N)C(=O)O)C(=O)O [cilastatin]
Competition of drug binding to megalin (in words) (megalin; binding of gentamicin, colistin, vancomycin and cisplatin): the binding of all the drugs listed above is competed by cilastatin

N.N.[Cl][Pt][Cl] [cisplatin]
Direct binding to megalin (in words) (megalin): megalin is bound specifically

CNC(C)C1CCC(N)C(OC2C(N)CC(N)C(OC3OCC(C)(O)C(NC)C3O)C2O)O1 (centres unmarked) [gentamicin]
Direct binding to megalin (in words) (megalin): megalin is bound specifically

colistin
Direct binding to megalin (in words) (megalin): megalin is bound specifically

CN[C@H](CC(C)C)C(=O)N[C@H]1C(=O)N[C@@H](CC(N)=O)C(=O)N[C@H]2C(=O)N[C@H]3C(=O)N[C@H](C(=O)N[C@H](C(=O)O)c4cc(O)cc(O)c4-c4cc3ccc4O)[C@H](O)c3ccc(c(Cl)c3)Oc3cc2cc(c3O[C@@H]2O[C@H](CO)[C@@H](O)[C@H](O)[C@H]2O[C@H]2C[C@](C)(N)[C@H](O)[C@H](C)O2)Oc2ccc(cc2Cl)[C@H]1O [Vancomycin]
KIM-1 compared to protamine alone (in words) (Urinary KIM-1; day 2, 24 h after drug administration): significantly increased urinary KIM-1 | KIM-1 change from baseline of day 1 (in words) (Urinary KIM-1; each animal group compared to itself, 4 days): elevated KIM-1 on days 2 and 3 | Contrast KIM-1 (Urinary KIM-1; vs protamine alone, day 1 (prior to any drug), n = 6-7): 0.72 ng/24 h | Contrast KIM-1 (Urinary KIM-1; vs protamine alone, day 2 (24 h after drug administration)): 24.92 ng/24 h | Contrast KIM-1 (Urinary KIM-1; vs protamine alone, day 2 (24 h after drug administration), listed as vancomycin): 24.9 ng/24 h | Contrast KIM-1 (Urinary KIM-1; vs protamine alone, day 3): 20.88 ng/24 h | Contrast KIM-1 (Urinary KIM-1; vs protamine alone, day 4): 9.00 ng/24 h | Contrast KIM-1 (Urinary KIM-1; [1]): 24.81 ng/24 h | Contrast KIM-1 (Urinary KIM-1; [2]): 20.50 ng/24 h | Contrast KIM-1 (Urinary KIM-1; [3]): 8.55 ng/24 h | 95% confidence interval of contrast KIM-1 (Urinary KIM-1; vs protamine alone, day 1): (−22.3–23.8) ng/24 h | 95% confidence interval of contrast KIM-1 (Urinary KIM-1; vs protamine alone, day 2): (1.9–48.0) ng/24 h | 95% confidence interval of contrast KIM-1 (Urinary KIM-1; vs protamine alone, day 2, listed as vancomycin): 1.87–48.0 ng/24 h | 95% confidence interval of contrast KIM-1 (Urinary KIM-1; vs protamine alone, day 3): (−2.2–43.9) ng/24 h | 95% confidence interval of contrast KIM-1 (Urinary KIM-1; vs protamine alone, day 4): (−14.0–32.0) ng/24 h | 95% confidence interval of contrast KIM-1 (Urinary KIM-1; [1]): (5.2–44.4) ng/24 h | 95% confidence interval of contrast KIM-1 (Urinary KIM-1; [2]): (0.9–40.1) ng/24 h | 95% confidence interval of contrast KIM-1 (Urinary KIM-1; [3]): (−11–28.1) ng/24 h | Time to VAN (creatinine defined), interquartile range (acute kidney injury; humans, after treatment initiation): 6 to 13 days | Median time for acute injury to be detectable with creatinine alone (acute kidney injury; humans): 6 days | Risk of AKI compared to other antibiotics (acute kidney injury; systematic review and meta-analysis): up to 2.5 times greater | Direct binding to megalin (in words) (megalin): megalin is bound specifically
